Reference: patent publication US20260226006A1, “INDOLE COMPOUND, PREPARATION METHOD THEREFOR AND USE THEREOF” (SUZHOU MERNA THERAPEUTICS CO. LTD, priority 2023, published 2026)

What was measured:
[1] = system: skin of hind limb toes of mice; test: Chemotherapeutic drug-induced mouse models with hand-foot syndrome (Example 23); type: in vivo, ICR mice; settings: for degree of swelling of hind limb toes / epidermal layer and stratum corneum in skin tissues of hind limb toes (pathological staining): modeling drug oral for 14 days; for skin appearance of hind limb toes: modeling for 14 days, capecitabine 200 mg/kg or docetaxel 25 mg/kg oral
Description: After adaptive feeding for 7 days, SPF-grade ICR mice (male, 5-6 weeks old, with a body weight of approximately 35 g) were randomly divided into groups, including a blank control group (6 mice), a capecitabine modeling group (6 mice), a docetaxel modeling group (6 mice), a capecitabine+compound 2b group (6 mice), a docetaxel+compound 2b group (6 mice), a capecitabine+nicotinamide group (6 mice), and a docetaxel+nicotinamide group (6 mice). The groups were respectively administered corresponding modeling drugs by oral gavage (capecitabine at 200 mg/kg and docetaxel at 25 mg/kg) once daily, and the blank control group was administered an equivalent volume of normal saline. After administration with the chemotherapeutic drugs for 2 weeks, the compound ointments (at a compound content of 3%) used in Example 22 were respectively applied topically in the groups, or nicotinamide was orally administered (100 mg/kg) once daily continuously for 16 days.
Measurement of the degree of swelling of toes: The degree of swelling of hind limb toes of the mice was measured using a toe swelling tester (KW-7C, Nanjing Calvin Biotechnology Co., Ltd.) before administration with the modeling drugs, after administration with the modeling drugs for 2 weeks, and before sacrifice, respectively. Before measurement, ankle joints of hind paws of the mice were marked at same positions before administration, after administration for 2 weeks, and before sacrifice. During measurement, water was properly located at the same level as the marked positions, and numerical values were recorded after becoming stable.
Pathological staining of skin tissues: Skin tissue samples were selected from hind limb toes of the mice and placed in 4% paraformaldehyde for fixation at room temperature for 4 hours. Then, the tissues were taken out and rinsed with running water for several hours. The samples were subjected to dehydration treatment with 70%, 80%, and 90% ethanol solutions, followed by treatment with a mixed solution of equal amounts of absolute alcohol and xylene for 15 minutes, and then permeabilized twice with a xylene solution for 15 minutes each time until the samples became transparent. The samples were placed in a mixture of half xylene and half paraffin for soaking for 15 minutes, and then, paraffin I and paraffin II were added for wax penetration for one hour, respectively. After embedding with paraffin, the samples were sectioned, baked, dewaxed, and hydrated. Then, the hydrated sections were placed in a hematoxylin solution (ZSGB-BIO, article No. 23041001) for staining for 3 minutes, and a differentiation solution of hydrochloric acid in ethanol was added for differentiation for 15 seconds. After rinsing with water, a Scott bluing solution (Servicebio, article No. 20230801) was added for bluing for 15 seconds. After rinsing with running water, the sections were stained with an eosin solution (Solarbio, article No. 33535) for 3 minutes, rinsed with running water, dehydrated, permeabilized, sealed, and inspected under a microscope.
Immunohistochemical staining: After baking, dewaxing, and hydration, paraffin sections of skin tissues of hind limb toes of the mice were subjected to antigen retrieval using a 0.2 M citric acid buffer solution (containing 1.534 g of citric acid, 3.1 g of sodium citrate, and 100 mL of distilled water, pH 4.7). Endogenous […] was removed using 3% hydrogen peroxide (Shandong Annjet High-Tech Disinfection Technology Co., Ltd., article No. 20290902), and the sections were incubated at room temperature for 10 minutes and then fully rinsed with a PBS buffer solution (containing 8 g of NaCl, 0.2 g of KCl, 1.44 g of Na2HPO4, and 1 M HCl, pH 7.4). The sections were permeabilized with 0.5% Triron-X-100 (AmyJet Scientific, article No. A-CSH436-100 mL), respectively permeabilized with mouse anti-IL-1β and rabbit IL-8 for 10 minutes, and not permeabilized with rabbit anti-IL-6. […]

HaCat cells [2] = test: m6A methylation level of drug-treated HaCat keratinocytes by nanopore sequencing (Example 14); type: cell-based, human; settings: 50 nM drug, 24 hours
Procedure: 1*10^8 HaCat cells were seeded in culture dishes, into which 50 nM drugs (including sorafenib, capecitabine, docetaxel, and osimertinib) were added, respectively. The cells were cultured in an incubator containing 5% CO2 at 37° C. for 24 hours and washed with PBS after culture media were removed. Centrifugation was performed, the supernatant was discarded, and then, 400 μL of an RLT cell lysis buffer (QIAGEN, Cat. #79216) was added. A portion of samples were selected, into which 400 μL of 70% ethanol was added. The mixture was evenly stirred and then transferred to an RNeasy mini column, and RNA was extracted using an RNeasy mini kit (QIAGEN, Cat. #74104). 2 μL of an RNA sample was selected and dissolved in 98 μL of a 10 mM Tris-HCl buffer solution, and the absorbance at 260 nm was measured using a Nanodrop (Thermo Fisher Scientific) to determine the RNA concentration.
40 μg of an RNA sample was selected for enrichment of mRNA (PolyA+RNA) using an NEBNext Poly(A) mRNA magnetic isolation module (NEB, Cat. #E7490), and then, a 3′ end of the above enriched mRNA (PolyA+RNA) molecule was ligated with reverse transcription adapter RTA using a direct RNA sequencing kit (Oxford Nanopore Technologies, Cat. #SQK-RNA002). A reverse transcription reaction was performed with the mRNA (PolyA+RNA) molecule as a template to synthesize a complementary strand, a terminal end of the reverse transcription adapter RTA was ligated with a sequencing adapter (RNA adapter) to form a final sequencing library, and quantitative detection was performed using a Qubit™ dsDNA HS assay kit (Invitrogen, Cat. #LOT2133187).
After quality inspection of the library, the prepared sequencing library was loaded onto a PromethION flow cell chip (Oxford Nanopore Technologies, Cat. #FLO-MIN106D), and placed in a PromethION sequencer (Oxford Nanopore Technologies) for sequencing by selecting a matched sequencing mode. Basecalling was performed on sequencing data through guppy, and m6A methylation analysis was performed on original fast5 data.

HaCat cells [3] = test: m6A methylation level of human HaCat keratinocytes, EpiQuik m6A RNA methylation quantification kit (Example 20); type: cell-based; settings: 50 nM drug alone; for fold induction at 0.05 µM: Homo sapiens, HaCat cells, 24 hours, read-out: m6A fold change relative to control group 1
Procedure: HaCat cells were cultured in a DMEM culture medium containing 10% fetal bovine serum, 100 U/mL penicillin, and 100 μg/mL streptomycin. Culture dishes were placed in an incubator containing 5% CO2 for culture at 37° C. for 24 hours. An equal volume of DMSO was added in control group 1, 50 nM sorafenib, capecitabine, docetaxel, and osimertinib were respectively added in control groups A, B, C, and D, and 400 nM test compounds or nicotinamide were respectively added in sample groups A1-17, B1-17, C1-17, and D1-17 after the addition of 50 nM corresponding compounds. The cells were continuously cultured for 24 hours, washed with PBS, and then collected by high-speed centrifugation. Total RNA was extracted using a Trizol reagent (Sigma Aldrich), and RNA m6A methylation of a sample was quantitatively detected using an EpiQuik m6A RNA methylation quantification kit. The concentrations of positive control samples for a standard curve were 0.01 ng/μl, 0.02 ng/μl, 0.05 ng/μl, 0.1 ng/μl, 0.2 ng/μl, and 0.5 ng/μl. The absorbance at 450 nm was read using a microplate reader (Tecan GENios). A quantitative calculation formula for m6A is as follows:
m6A (ng)=(absorbance of sample well−absorbance of background well)/slope of standard curve m6A (%)=m6A (ng)/RNA amount of sample (ng)*100%.

[4] = system: NAP1L2 mRNA in HaCat cells; test: NAP1L2 mRNA expression in HaCat cells by RT-PCR (Example 16); type: cell-based, human; settings: HaCat keratinocytes, 24 hours
Procedure: 1*10^8 HaCat cells were seeded in culture dishes, into which a recombinant protein of m6A methylase METTL3 (Abcam, Cat. #ab271611) and a recombinant protein of m6A demethylase FTO (Abcam, Cat. #ab271525) were added, or METTL3 siRNA (sh-METTL3, GeneChem) and FTO siRNA (sh-FTO, GeneChem) were transfected, respectively. The cells were placed in an incubator containing 5% carbon dioxide for culture at 37° C. for 24 hours, washed with PBS, and then collected by high-speed centrifugation. Total RNA was extracted using a Trizol reagent (Sigma Aldrich). 1 μg of RNA was reverse-transcribed into cDNA using a cDNA reverse transcription kit (Transgene Biotech, Cat. #AT311-03). 1.25 μL of a primer (Beyotime, Cat. #QH18721S), 10 μL of an iTag Universal SYBR Green supermix (Bio-Rad, Cat. #172-5125), and an appropriate amount of DEPC ultrapure water were added to formulate 20 μL of a reaction solution to perform an RT-PCR reaction. Upon completion of the reaction, the reaction solution was subjected to agarose gel electrophoresis to determine the mRNA expression amount of NAP1L2.

[5] = system: MMP2 and MMP9 in HaCat keratinocytes; test: Expression of matrix metalloproteinases in HaCat keratinocytes, RT-PCR and Western blot (Example 17); type: cell-based, human; settings: 24 hours
Procedure: 1*10^8 HaCat cells were seeded in culture dishes, into which a human recombinant NAP1L2 protein (Abcam, Cat. #ab117213), sorafenib, capecitabine, docetaxel, and osimertinib were added, or NAP1L2 siRNA (sh-NAP1L2, GeneChem) was transfected, respectively. The cells were placed in an incubator containing 5% carbon dioxide for culture at 37° C. for 24 hours, washed with PBS, and then collected by high-speed centrifugation. An RLT lysis buffer was added to the above collected cells, the mixture was shaken at 4° C. for half an hour and centrifuged to collect the supernatant, and the expression of matrix metalloproteins was measured by Western blot.
Total RNA was extracted from the above collected cells using a Trizol reagent (Sigma Aldrich). 1 μg of RNA was reverse-transcribed into cDNA using a cDNA reverse transcription kit (Transgene Biotech, Cat. #AT311-03). 1.25 μL of a primer (SinoBiological, Cat. #HP100168&HP100367), 10 μL of an iTagUniversal SYBR Green supermix (Bio-Rad, Cat. #172-5125), and an appropriate amount of DEPC ultrapure water were added to formulate 20 μL of a reaction solution to perform an RT-PCR reaction. Upon completion of the reaction, the reaction solution was subjected to agarose gel electrophoresis to determine the mRNA expression amounts of the matrix metalloproteins.

CCCCCOC(=O)Nc1nc(=O)n([C@@H]2O[C@H](C)[C@@H](O)[C@H]2O)cc1F [Capecitabine, capecitabine]
cytokine IL-8 in skin tissues of hind limb toes (immunohistochemistry) ([1]; capecitabine oral for 14 days): significantly increased | degree of swelling of hind limb toes [1]: swelling of the hind limb toes of the mice is caused | epidermal layer and stratum corneum in skin tissues of hind limb toes (pathological staining) [1]: significantly thickened | skin appearance of hind limb toes [1]: obvious erythema, rhagades, and blisters | m6A methylation level of HaCat cells, increase compared with blank control group (HaCat cells [2]): 6.01 times | m6A methylation level of human HaCat keratinocytes (HaCat cells [3]): significantly increase | fold induction at 0.05 µM (HaCat cells [3]): 6.7

CC(=O)O[C@@]12CO[C@@H]1C[C@H](O)[C@@]1(C)C(=O)[C@H](O)C3=C(C)[C@@H](OC(=O)[C@H](O)[C@@H](NC(=O)OC(C)(C)C)c4ccccc4)C[C@@](O)([C@@H](OC(=O)c4ccccc4)[C@H]21)C3(C)C [Docetaxel, docetaxel]
cytokine IL-6 in skin tissues of hind limb toes (immunohistochemistry) ([1]; docetaxel oral for 14 days): significantly increased | degree of swelling of hind limb toes [1]: swelling of the hind limb toes of the mice is caused | epidermal layer and stratum corneum in skin tissues of hind limb toes (pathological staining) [1]: significantly thickened | skin appearance of hind limb toes [1]: obvious erythema, rhagades, and blisters | m6A methylation level of HaCat cells, increase compared with blank control group (HaCat cells [2]): 3.97 times | m6A methylation level of human HaCat keratinocytes (HaCat cells [3]): significantly increase | fold induction at 0.05 µM (HaCat cells [3]): 5.6

m6A demethylase FTO: recombinant protein of m6A demethylase FTO (Abcam, Cat. #ab271525)
mRNA expression amount of NAP1L2 [4]: significantly decreased

m6A methylase METTL3: recombinant protein of m6A methylase METTL3 (Abcam, Cat. #ab271611)
mRNA expression amount of NAP1L2 [4]: significantly increased

B1: recombinant NAP1L2 protein: human recombinant NAP1L2 protein (Abcam, Cat. #ab117213) (protein, UniProt Q9ULW6 1-460, looked up)
Nucleosome assembly protein …: MAESENRKELSESSQEEAGNQIMVEGLGEHLERGEDAAAGLGDDGKCGEEAAAGLGEEGENGEDTAAGSGEDGKKGGDTDEDSEADRPKGLIGYVLDTDFVESLPVKVKYRVLALKKLQTRAANLESKFLREFHDIERKFAEMYQPLLEKRRQIINAIYEPTEEECEYKSDSEDCDDEEMCHEEMYGNEEGMVHEYVDEDDGYEDYYYDYAVEEEEEEEEEDDIEATGEENKEEEDPKGIPDFWLTVLKNVDTLTPLIKKYDEPILKLLTDIKVKLSDPGEPLSFTLEFHFKPNEYFKNELLTKTYVLKSKLAYYDPHPYRGTAIEYSTGCEIDWNEGKNVTLKTIKKKQKHRIWGTIRTVTEDFPKDSFFNFFSPHGITSNGRDGNDDFLLGHNLRTYIIPRSVLFFSGDALESQQEGVVREVNDAIYDKIIYDNWMAAIEEVKACCKNLEALVEDIDR
mRNA and protein expression amounts of matrix metalloproteinases MMP2 and MMP9 [5]: significantly increased
